# Read-outs that look alike come from different tables or passages of the source.
# Experiments:
# Assay in all cases: microbe, parasite or virus in culture
# Assay type in all cases: cell-based
# [1] = test system: SARS-CoV-2 Delta (B.1.617.2)
# [2] = test system: SARS-CoV-2 Beta (B.1.351)
# [3] = test system: SARS-CoV-2 Omicron (B.1.1.529)
# [4] = Severe acute respiratory syndrome coronavirus 2, Vero C1008, 72 h
Molecule,"IC50 [1, 4]","IC50 [2, 4]","IC50 [3, 4]",IC50 [1],IC50 [2],IC50 [3]
"O=C(O)c1ccc(OCCCn2c(=O)ccn(CCCCCCCCCCCCOc3ccc(Br)cc3)c2=O)cc1 [Compound 1007, 4-[3-[3-[12-(4-Bromophenoxy)dodecyl]-2,6-dioxo-3,6-dihydropyrimidin-1(^2H)-yl]propoxy]benzoic acid]",> 50 µM,> 50 µM,> 50 µM,,,
"4-[5-[3-[5-(2-Bromophenoxy)pentyl]-2,6-dioxo-5-methyl-3,6-dihydropyrimidin-1(^2H)-yl]pentyloxy]benzoic acid [Compound 872]",,,,> 50 µM,> 50 µM,7.92 µM
"O=C(O)c1ccc(OCCCCn2c(=O)ccn(CCCOc3ccc(Br)cc3)c2=O)cc1 [Compound 873, 4-[4-[3-[3-(4-Bromophenoxy)propyl]-2,6-dioxo-3,6-dihydropyrimidin-1(^2H)-yl]butoxy]benzoic acid]",> 50 µM,50 µM,28.2 µM,,,
"O=C(O)c1ccc(OCCCCn2c(=O)ccn(Cc3ccc(Br)c4ccccc34)c2=O)cc1 [Compound 1006, 4-[4-[3-(4-Bromonaphthyl-1-methyl)-2,6-dioxo-3,6-dihydropyrimidin-1(2H)-yl]butoxy]benzoic acid]",27.4 µM,> 50 µM,> 50 µM,,,
"O=C(O)c1ccc(OCCCCCn2c(=O)ccn(CCCCCOc3ccccc3Br)c2=O)cc1 [Compound 871, 4-[5-[3-[5-(2-Bromophenoxy)pentyl]-2,6-dioxo-3,6-dihydropyrimidin-1(^2H)-yl]pentyloxy]benzoic acid]",26.6 µM,27.3 µM,> 50 µM,,,
"O=C(O)c1ccc(OCCCCn2c(=O)ccn(Cc3cccc4ccccc34)c2=O)cc1 [Compound 601, 4-[4-[2,6-Dioxo-3-(naphthyl-1-methyl)-3,6-dihydropyrimidin-1(^2H)-yl]butoxy]benzoic acid]",32.7 µM,32.7 µM,27.1 µM,,,
"O=c1ccn(Cc2c3ccccc3cc3ccccc23)c(=O)n1CCCCCCOc1ccc(Br)cc1 [Compound 611, 1-(Anthracen-9-ylmethyl)-3-[6-(4-bromophenoxy)hexyl]uracil]",13.3 µM,> 50 µM,> 50 µM,,,
"O=C(O)c1ccc(OCCCCCn2c(=O)ccn(CCCCCOc3ccc(F)cc3)c2=O)cc1 [Compound 870, 4-[5-[3-[5-(4-Fluorophenoxy)pentyl]-2,6-dioxo-3,6-dihydropyrimidin-1(^2H)-yl]pentyloxy]benzoic acid]",14.6 µM,34.1 µM,24.4 µM,,,
"Cc1cc(C)cc(OCCCCCn2ccc(=O)n(CCCCCOc3ccc(C(=O)O)cc3)c2=O)c1 [Compound 874, 4-[5-[3-[5-(3,5-Dimethylphenoxy)pentyl]-2,6-dioxo-3,6-dihydropyrimidin-1(^2H)-yl]pentyloxy]benzoic acid]",30.2 µM,29.1 µM,> 50 µM,,,
O=C(O)c1ccc(Cn2c(=O)ccn(CCCCCOc3ccc(Br)cc3)c2=O)cc1 [Compound 875],30.7 µM,33.1 µM,22.6 µM,,,
"O=C(O)c1ccc(OCCCCn2c(=O)ccn(Cc3ccc4ccccc4c3)c2=O)cc1 [Compound 1005, 4-[4-[2,6-Dioxo-3-(naphthyl-2-methyl)-3,6-dihydropyrimidin-1(^2H)-yl]butoxy]benzoic acid]",27.8 µM,15.5 µM,> 50 µM,,,
O=C(O)c1ccc(OCCCCCn2c(=O)ccn(Cc3c4ccccc4cc4ccccc34)c2=O)cc1 [Compound 876],29.3 µM,23.8 µM,22.4 µM,,,

# Reference: paper PMC9456261 (International Journal of Molecular Sciences, 2022)
